Experimental data taken from patent publication US20260226552A1, “MUC5AC IN PANCREATIC DUCTAL ADENOCARCINOMA” (Ohio State Innovation Foundation, priority 2023, published 2026).
Marks after values point to notes of the source that are not given here.

Key:
[1] = test system: pancreatic cell lines (PCLs); assay: Chemosensitivity of pancreatic cell lines by MUC5AC expression level; type: cell-based
From the text: It was also shown that MUC5AC detected by CLH2 (immature) and 45M1 (mature) mabs are differently localized (Ho, J. J., et al., Secretion of MUC5AC mucin from pancreatic cancer cells in response to forskolin and VIP. Biochem Biophys Res Commun, 2002. 294(3): p. 680-6). NPC-1C-specific (immunogenic) MUC5AC has a distribution similar to mature MUC5AC. It can therefore be concluded that there are differences in chemosensitivities MUC5AC^negative MUC5AC^low to moderate and MUC5AC^high pancreatic cell lines (PCLs).
Thus, adding localization and other isoform data to the level of mature MUC5AC expression gives a better predictive signal in PDA patients.

MUC5AC [2] = assay: Immunohistochemistry of MUC5AC glycoforms (45M1, CLH2) in resected PDA tissue, H-score and extracellular detection; type: in vivo, human; settings: neoadjuvant therapy group by chemotherapy
Experimental: Immunohistochemistry. […] The assay methodology development, optimization, and validation mirrors any new clinical immunohistochemical assay development in the laboratory. […] Briefly, the assay is performed on automated Stainer's (Leica Bond or Dako) in the laboratory. Appropriate positive (e.g., normal stomach) and negative tissue (e.g. normal pancreas) controls are used to optimize and validate the assay. The best pretreatment and antibody detection systems are determined using the manufacturer's antibody datasheet, and titration of at least three antibody dilutions are performed. If there is no recommendation from the manufacturer, the antibody is tested by trying the different lab pretreatment and detection system methods in order to determine the best method. Antibody dilutions may need to be optimized, depending on the results of initial testing. A pathologist reviews the slides from the validation run to determine the optimal methodology. Assessment of MUC5AC immunohistochemical staining. The immunohistochemical-labelled whole tumor section slides is reviewed by a pathologist with expertise in pancreaticobiliary pathology. The slides are reviewed for the expression patterns (Cytoplasmic vs Membranous) and scored for the extent (% of tumor stain) and intensity of staining (Negative 0, mild 1+, moderate 2+ and strong +3). A semiquantitative approach of H-score is assigned to tumor samples for statistical analysis. […] Tumor with scores <10 are considered as negative for expression. […] One hundred resected PDA specimens and serum samples were collected. 43 patients had neoadjuvant therapy (NAT), and 57 had upfront surgery (UpS). […] The presence or absence of extracellular (EC) expression was also studied. […] NR vs. […] Five of them were heavily treated with systemic therapy. […] Serum samples for the patients were collected at different time points of the management. This allowed for studying the relationship between serum MUC5AC with the known pancreatic cancer tumor marker CA 19-9 and MUC5AC's role in predicting treatment response. […] PR vs. […] The CA 19-9 levels followed the same trend (nCR vs. PR vs. NR=129 vs. 452 vs. 958, p>0.05). […] This can explain larger tumors in these groups. […] It should be noted that CA 19-9 levels were very high but not statistically significant in lower MUC5AC groups. One key takeaway from this is that PFS is not only driven by the pathological response in NAT group. Clinically, this may translate into guiding the physicians about the timing of surgery while on systemic therapy. […] OR vs. NR, 2.64 vs. 0.9, p=0.05). • There were 17 patients within 8 weeks of surgery, 9 within 5 weeks, and 8 from 5-8 weeks. The mean MUC5AC was lower than the ones noted in the pretreatment/presurgery population (1.2 ng/mL). […] The pathological response noted on the resected sample in NAT-group reported from the scale of 1-3 based on the treatment response. For practical purposes, patients with extensive tumors with no evident tumor regression or 3 were designated as the no-response (NR) group. Patients with residual tumors with evidence of regression or 2 and near complete response or single cells or small group of cancer cells or 1 were considered as partial-response (PR) or near complete-response (nCR), respectively.

MUC5AC [3] = assay: Serum MUC5AC by ELISA kit in PDA patients; type: in vivo, human; settings: recurrent group, adjuvant therapy
From the text: One hundred resected PDA specimens and serum samples were collected. 43 patients had neoadjuvant therapy (NAT), and 57 had upfront surgery (UpS). The cellular expression of MUC5AC was studied in the resected formalin-fixed paraffin-embedded tissue through immunohistochemistry using 45M1 and CLH2 antibodies. The expression levels in the tissue were estimated using H-score intensity (0-3)X % of tumor cells with expression with results ranging from 0-300. The presence or absence of extracellular (EC) expression was also studied. Below is a summary of some significant findings. • CLH2-MUC5AC was identified in the perinuclear region or cytoplasm, while 45M1-MUC5AC was identified in apical and EC regions. […] Human serum MUC5AC levels were analyzed using the Human MUC5AC ELISA Kit (Catalog number NBP2-76703, Novus Biologicals, Centennial, CO). 45M1 and CLH2 could not be detected in the serum samples, but the commercially available kits allowed detection and measuring of MUC5AC. […]
There was an analysis of patients with serum MUC5AC levels available post-NAT […] to understand if serum MuC5AC levels help predict treatment response. […] The correlation between tissue (45M1 and CLH2) and serum MUC5AC levels was analyzed as the former correlated with treatment response in NAT-group.

[4] = compared with MUC5AC low to moderate PCLs
[5] = compared with MUC5AC negative PCLs

## O=c1[nH]cc(F)c(=O)[nH]1 [5FU, fluorouracil]
[1]; [4]
  chemosensitivity of MUC5AC high PCLs: more sensitive
[1]; [5]
  chemosensitivity of MUC5AC high PCLs: more sensitive
MUC5AC [2]
  45M1 H-score mean: 130
  45M1 H-score median (range): 105 (0-270)
  45M1 detection rate: 89%
  CLH2 H-score mean: 126
  CLH2 H-score median (range): 95 (0-270)
  CLH2 detection rate: 89%
  EC-45M1 detection rate: 58%

## N.N.[Cl][Pt][Cl] [Cisplatin, cisplatin]
[1]; [4]
  chemosensitivity of MUC5AC high PCLs: more sensitive
[1]; [5]
  chemosensitivity of MUC5AC high PCLs: more sensitive

## Nc1ccn([C@@H]2O[C@H](CO)[C@@H](O)C2(F)F)c(=O)n1 [Gem, gemcitabine]
MUC5AC [3]; after chemotherapy
  Serum MUC5AC: 5.3* ng/mL
MUC5AC [3]; before chemotherapy
  Serum MUC5AC: 1.1 ng/mL
[1]; [4]
  chemosensitivity of MUC5AC high PCLs: resistant
[1]; [5]
  chemosensitivity of MUC5AC high PCLs: resistant
MUC5AC [2]
  45M1 H-score mean: 116
  45M1 H-score median (range): 150 (10-210)
  45M1 detection rate: 100%
  CLH2 H-score mean: 150)/90
  CLH2 H-score median (range): 120
  CLH2 detection rate: 100%
  EC-45M1 detection rate: 60%

## CCc1c2c(nc3ccc(OC(=O)N4CCC(N5CCCCC5)CC4)cc13)-c1cc3c(c(=O)n1C2)COC(=O)[C@]3(O)CC [Irinotecan, irinotecan]
[1]; [5]
  chemosensitivity of MUC5AC high PCLs: more sensitive

## O=C1[O][Pt]2([NH][C@@H]3CCCC[C@H]3[NH]2)[O]C1=O [Oxaliplatin, oxaliplatin]
[1]; [4]
  chemosensitivity of MUC5AC high PCLs: more sensitive
[1]; [5]
  chemosensitivity of MUC5AC high PCLs: resistant
